In paper PMC3633919, “Identification and Characterization of Pheromone Receptors and Interplay between Receptors and Pheromone Binding Proteins in the Diamondback Moth, Plutella xyllostella” (PLoS ONE, 2013):

Tests used:
PxylOR4/PxylOrco = molecular target: T1, PxylOR4/PxylOrco (Plutella xylostella, UniProt M9ZZM3); assay: two-electrode voltage clamp, Xenopus oocytes; format: cell-based
T1 construct: full-length untagged ORF 1209 bp (402 residues); pSP64T cRNA co-injected with PxylOrco cRNA in Xenopus laevis oocytes; with Odorant receptor coreceptor
T1 sequence (M9ZZM3 1-402): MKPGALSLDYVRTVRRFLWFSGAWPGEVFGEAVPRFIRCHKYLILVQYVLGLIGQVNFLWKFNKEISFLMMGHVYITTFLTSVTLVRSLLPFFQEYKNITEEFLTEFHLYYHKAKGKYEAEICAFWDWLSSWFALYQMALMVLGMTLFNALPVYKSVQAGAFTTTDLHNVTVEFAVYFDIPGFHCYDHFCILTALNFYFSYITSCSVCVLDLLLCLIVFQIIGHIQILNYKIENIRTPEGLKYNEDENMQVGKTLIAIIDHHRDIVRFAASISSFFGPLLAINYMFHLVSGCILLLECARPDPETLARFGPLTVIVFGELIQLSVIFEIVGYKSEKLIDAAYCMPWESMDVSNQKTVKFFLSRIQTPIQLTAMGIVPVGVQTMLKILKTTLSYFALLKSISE
T1 sequence (D0EZE1 1-471 partner): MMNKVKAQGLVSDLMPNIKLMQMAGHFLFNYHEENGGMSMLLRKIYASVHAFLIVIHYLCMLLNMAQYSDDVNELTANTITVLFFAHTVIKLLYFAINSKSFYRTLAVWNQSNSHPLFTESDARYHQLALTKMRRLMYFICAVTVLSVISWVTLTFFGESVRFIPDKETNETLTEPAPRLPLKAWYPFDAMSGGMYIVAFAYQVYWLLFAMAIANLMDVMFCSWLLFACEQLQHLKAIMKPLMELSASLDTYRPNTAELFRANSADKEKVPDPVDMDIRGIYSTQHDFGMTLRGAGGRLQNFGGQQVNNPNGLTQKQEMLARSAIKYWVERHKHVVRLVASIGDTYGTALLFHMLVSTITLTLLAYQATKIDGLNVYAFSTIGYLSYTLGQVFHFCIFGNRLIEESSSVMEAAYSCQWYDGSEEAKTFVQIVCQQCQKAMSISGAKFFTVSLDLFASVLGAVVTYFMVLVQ

PxylOR1/PxylOrco = molecular target: T2, PxylOR1/PxylOrco (Plutella xylostella, UniProt N0A395); assay: two-electrode voltage clamp, Xenopus oocytes; format: cell-based
T2 construct: full-length untagged ORF 1269 bp (422 residues); pSP64T cRNA co-injected with PxylOrco cRNA in Xenopus laevis oocytes; with Odorant receptor coreceptor
T2 sequence (N0A395 1-422): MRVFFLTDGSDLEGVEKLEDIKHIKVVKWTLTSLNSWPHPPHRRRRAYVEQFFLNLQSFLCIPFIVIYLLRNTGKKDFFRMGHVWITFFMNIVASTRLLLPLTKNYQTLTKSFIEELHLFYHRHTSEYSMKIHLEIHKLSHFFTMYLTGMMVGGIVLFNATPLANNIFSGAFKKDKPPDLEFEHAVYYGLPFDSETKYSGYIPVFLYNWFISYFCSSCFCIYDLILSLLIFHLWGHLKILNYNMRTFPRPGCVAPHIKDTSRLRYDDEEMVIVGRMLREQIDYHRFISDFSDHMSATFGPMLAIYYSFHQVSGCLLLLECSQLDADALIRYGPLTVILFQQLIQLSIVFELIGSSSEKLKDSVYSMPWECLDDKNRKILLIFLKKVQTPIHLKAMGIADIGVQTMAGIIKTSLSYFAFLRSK
T2 sequence (D0EZE1 1-471 partner): T1 sequence (D0EZE1 1-471 partner)

| Structure (SMILES) | EC50 (PxylOR4/PxylOrco) [nM] | EC50 (PxylOR1/PxylOrco) [nM] |
| --- | --- | --- |
| C/C=C/C/C=C\CCCCCCCCOC(C)=O [Z9,E12-14:Ac] | 1940 |  |
| CCCC/C=C\CCCCCCCCCC=O [Z11-16:Ald, (Z)-11-hexadecenal] |  | 23900 |
| CCCC/C=C\CCCCCCCCOC(C)=O [Z9-14:Ac, (Z)-9-tetradecenyl acetate] | 243 |  |
